Laboratory results taken from patent US20230233569A1 (Revolution Medicines, Inc., priority 2020, published 2023).
Values joined by “and” are separate entries in the source; they are usually repeats but may differ in a detail not shown here. Identical values can stand only once.

What was measured:
Assay in all cases: Disruption of BRAF RBD interaction with Ras (FRET / MOA assay, with Cyclophilin A)
Assay type in all cases: biochemical
NRAS G12C = NRAS G12C (Homo sapiens, UniProt P01111+P62937, G12C); settings: NRAS G12C; read-out: NRAS G12C FRET data IC50
Excerpt: (§1) This protocol may also be executed substituting other Ras proteins or nucleotides.
(§2) The purpose of this biochemical assay was to measure the ability of test compounds to facilitate ternary complex formation between a nucleotide-loaded K-Ras isoform and Cyclophilin A; the resulting ternary complex disrupts binding to a BRAF^RBD construct, inhibiting K-Ras signaling through a RAF effector. Data is reported as IC50 values.
(§3) Compound was present in plate wells as a 10-point 3-fold dilution series starting at a final concentration of 30 μM. After incubation at 25° C. for 3 hours, a mixture of Anti-His Eu-W1024 and anti-GST allophycocyanin was then added to assay sample wells at final concentrations of 10 nM and 50 nM, respectively, and the reaction incubated for an additional 1.5 hours. […] Compounds that facilitate disruption of a K-Ras:RAF complex were identified as those eliciting a decrease in the TR-FRET ratio relative to DMSO control wells.
as §2, with “BRAF^RBDD” for “BRAF^RBD”

KRAS G12D = KRAS G12D (Homo sapiens, UniProt P01116+P62937, G12D); settings: read-out: KRAS G12D FRET data, IC50
Excerpt: as §1, §2, §3
as §2, with “BRAF^RBDD” for “BRAF^RBD”

KRAS WT = KRAS WT (Homo sapiens, UniProt P01116+P62937); settings: KRAS WT; read-out: KRAS WT FRET data IC50
Excerpt: as §1, §2, §3
as §2, with “BRAF^RBDD” for “BRAF^RBD”

KRAS G12S = KRAS G12S (Homo sapiens, UniProt P01116+P62937, G12S); settings: read-out: KRAS G12S FRET data, IC50
Excerpt: as §1, §2, §3
as §2, with “BRAF^RBDD” for “BRAF^RBD”

KRAS G12V = KRAS G12V (Homo sapiens, UniProt P01116+P62937, G12V); settings: KRAS G12V; read-out: KRAS G12V FRET data IC50
Excerpt: as §1, §2, §3
as §2, with “BRAF^RBDD” for “BRAF^RBD”

KRAS G13C = KRAS G13C (Homo sapiens, UniProt P01116+P62937, G13C); settings: KRAS G13C; read-out: KRAS G13C FRET data IC50
Excerpt: as §1, §2, §3
as §2, with “BRAF^RBDD” for “BRAF^RBD”

KRAS G12C = KRAS G12C (Homo sapiens, UniProt P01116+P62937, G12C); settings: KRAS G12C; read-out: KRAS G12C FRET data IC50
Excerpt: as §1, §2, §3
as §2, with “BRAF^RBDD” for “BRAF^RBD”

Sequence of KRAS WT (P01116 1-169 isoform P01116-2 limits assumed): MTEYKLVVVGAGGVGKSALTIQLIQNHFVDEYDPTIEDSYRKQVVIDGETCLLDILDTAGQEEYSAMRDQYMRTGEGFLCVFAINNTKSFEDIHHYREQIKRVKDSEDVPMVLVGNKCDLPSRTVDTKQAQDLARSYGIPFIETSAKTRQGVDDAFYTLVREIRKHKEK
Sequence of KRAS WT (P62937 whole entry): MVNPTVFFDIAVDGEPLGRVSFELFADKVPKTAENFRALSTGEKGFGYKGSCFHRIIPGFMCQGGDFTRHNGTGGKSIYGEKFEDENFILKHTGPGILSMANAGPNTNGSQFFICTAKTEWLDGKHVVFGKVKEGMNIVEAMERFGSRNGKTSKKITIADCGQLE
Sequence of KRAS G13C (P01116 1-169 isoform P01116-2 G13C): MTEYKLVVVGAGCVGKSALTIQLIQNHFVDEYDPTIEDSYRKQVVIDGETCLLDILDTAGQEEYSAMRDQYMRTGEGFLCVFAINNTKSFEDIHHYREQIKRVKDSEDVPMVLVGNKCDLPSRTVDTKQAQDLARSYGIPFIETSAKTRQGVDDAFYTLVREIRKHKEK
Sequence of KRAS G13C (P62937 whole entry): as the sequence (P62937 whole entry) above
Sequence of KRAS G12C (P01116 1-169 isoform P01116-2 G12C): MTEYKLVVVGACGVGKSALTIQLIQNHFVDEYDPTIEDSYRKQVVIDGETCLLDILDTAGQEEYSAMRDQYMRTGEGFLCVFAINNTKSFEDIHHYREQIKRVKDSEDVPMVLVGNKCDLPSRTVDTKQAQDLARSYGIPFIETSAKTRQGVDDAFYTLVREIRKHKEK
Sequence of KRAS G12C (P62937 whole entry): as the sequence (P62937 whole entry) above
Sequence of KRAS G12V (P01116 1-169 isoform P01116-2 G12V limits assumed): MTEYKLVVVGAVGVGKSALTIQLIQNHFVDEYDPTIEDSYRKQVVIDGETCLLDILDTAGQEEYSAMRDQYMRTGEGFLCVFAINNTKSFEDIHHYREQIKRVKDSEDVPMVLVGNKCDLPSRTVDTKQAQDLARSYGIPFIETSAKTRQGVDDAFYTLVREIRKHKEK
Sequence of KRAS G12V (P62937 whole entry): as the sequence (P62937 whole entry) above
Sequence of KRAS G12D (P01116 1-169 isoform P01116-2 G12D limits assumed): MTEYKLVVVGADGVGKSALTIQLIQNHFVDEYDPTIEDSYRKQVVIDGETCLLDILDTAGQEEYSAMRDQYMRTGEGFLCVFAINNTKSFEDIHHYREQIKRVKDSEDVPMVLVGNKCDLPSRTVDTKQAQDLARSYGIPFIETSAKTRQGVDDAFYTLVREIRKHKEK
Sequence of KRAS G12D (P62937 whole entry): as the sequence (P62937 whole entry) above
Sequence of KRAS G12S (P01116 1-169 isoform P01116-2 G12S limits assumed): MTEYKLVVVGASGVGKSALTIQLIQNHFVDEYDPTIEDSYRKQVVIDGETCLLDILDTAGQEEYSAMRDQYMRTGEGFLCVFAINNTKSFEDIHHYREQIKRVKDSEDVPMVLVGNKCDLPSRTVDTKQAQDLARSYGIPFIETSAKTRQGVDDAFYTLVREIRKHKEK
Sequence of KRAS G12S (P62937 whole entry): as the sequence (P62937 whole entry) above
Sequence of NRAS G12C (P01111 whole entry G12C): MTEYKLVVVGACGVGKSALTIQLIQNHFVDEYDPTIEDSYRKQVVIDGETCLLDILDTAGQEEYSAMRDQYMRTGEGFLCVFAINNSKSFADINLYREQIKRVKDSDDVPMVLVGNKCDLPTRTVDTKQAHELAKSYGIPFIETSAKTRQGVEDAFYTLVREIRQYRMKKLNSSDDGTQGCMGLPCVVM
Sequence of NRAS G12C (P62937 whole entry): as the sequence (P62937 whole entry) above

| SMILES | IC50 (NRAS G12C) [nM] | IC50 (KRAS G12D) | IC50 (KRAS WT) | IC50 (KRAS G12S) | IC50 (KRAS G12V) | IC50 (KRAS G13C) | IC50 (KRAS G12C) |
| --- | --- | --- | --- | --- | --- | --- | --- |
| C=CC(=O)N1CC[C@]2(COCCN2C(=O)N(C)[C@H](C(=O)N[C@H]2Cc3nc(cs3)-c3ccc4c(c3)c(c(-c3cccnc3[C@H](C)OC)n4CC)CC(C)(C)COC(=O)[C@@H]3CCCN(N3)C2=O)C(C)C)C1 (atropisomer, axis not shown) [Example A677] | 100 to 1000 | – | – | – | – | – | – |
| C=CC(=O)N1CC[C@H](C(=O)N(C)[C@H](C(=O)N[C@H]2Cc3cc(O)cc(c3)-c3ccc4c(c3)c(c(-c3ccncc3CCOC)n4CC)CC(C)(C)COC(=O)[C@@H]3CCCN(N3)C2=O)C(C)C)C1 (single isomer, unassigned) [Example A048] | – | 1 to 10 µM and > 10 µM | 1 to 10 µM and > 10 µM | 100 to 1000 nM and > 10000 nM | 100 to 1000 nM and > 10000 nM | 100 to 1000 nM and > 10000 nM | 10 to 100 nM and 1000 to 10000 nM |
| C=CC(=O)N1C[C@H](C)[C@H](C(=O)N(C)[C@H](C(=O)N[C@H]2Cc3cc(O)cc(c3)-c3ccc4c(c3)c(c(-c3ccccc3CCOC)n4CC)CC(C)(C)COC(=O)[C@@H]3CCCN(N3)C2=O)C(C)C)C1 [Example A041] | – | > 10 µM | 1 to 10 µM | 100 to 1000 nM | 100 to 1000 nM | 1000 to 10000 nM | 100 to 1000 nM |
| C=CC(=O)N1CC2(CCN([C@H](C(=O)N[C@H]3Cc4cc(O)cc(c4)-c4ccc5c(c4)c(c(-c4ccccc4CCOC)n5CC)CC(C)(C)COC(=O)[C@@H]4CCCN(N4)C3=O)C(C)C)C2=O)C1 [Example A031] | – | > 10 µM | 1 to 10 µM | 1000 to 10000 nM | 1000 to 10000 nM | 10 to 100 nM | 10 to 100 nM |
| C=CC(=O)N1CCC(C(=O)N(C)[C@H](C(=O)N[C@H]2Cc3cc(O)cc(c3)-c3ccc4c(c3)c(c(-c3ccccc3CN(C)C)n4CC)CC(C)(C)COC(=O)[C@@H]3CCCN(N3)C2=O)C(C)C)CC1 [Example A033] | – | > 10 µM | 1 to 10 µM | 1000 to 10000 nM | > 10000 nM | 100 to 1000 nM | 100 to 1000 nM |
| C=CC(=O)N1CC[C@H](C(=O)N(C)[C@H](C(=O)N[C@H]2Cc3cc(O)cc(c3)-c3ccc4c(c3)c(c(-c3ccc5cc(CN(C)C)n(C)c5c3)n4CC)CC(C)(C)COC(=O)[C@@H]3CCCN(N3)C2=O)C(C)C)C1 [Example A035] | – | > 10 µM | 1 to 10 µM | 1000 to 10000 nM | 1000 to 10000 nM | 1000 to 10000 nM | 100 to 1000 nM |
| C=CC(=O)N1CC[C@H](C(=O)N(C)[C@H](C(=O)N[C@H]2Cc3cc(O)cc(c3)-c3ccc4c(c3)c(c(-c3cncc(CN(C)C)c3)n4CC)CC(C)(C)COC(=O)[C@@H]3CCCN(N3)C2=O)C(C)C)C1 [Example A073] | – | > 10 µM | 1 to 10 µM | 1000 to 10000 nM | 1000 to 10000 nM | 1000 to 10000 nM | 100 to 1000 nM |
| C=CC(=O)N1CCC(C(=O)N(C)[C@H](C(=O)N[C@H]2Cc3cc(O)cc(c3)-c3ccc4c(c3)c(c(-c3ccccc3CCOC)n4CC)CC(C)(C)COC(=O)[C@@H]3CCCN(N3)C2=O)C(C)C)CC1 [Example A014] | – | > 10 µM | 1 to 10 µM | 1000 to 10000 nM | > 10000 nM | 1000 to 10000 nM | 100 to 1000 nM |

Second part, the compound after the results:

| IC50 (NRAS G12C) [nM] | IC50 (KRAS G12D) | IC50 (KRAS WT) | IC50 (KRAS G12S) | IC50 (KRAS G12V) | IC50 (KRAS G13C) | IC50 (KRAS G12C) | SMILES |
| --- | --- | --- | --- | --- | --- | --- | --- |
| – | > 10 µM | > 10 µM | > 10000 nM | > 10000 nM | > 10000 nM | 1000 to 10000 nM | C=CC(=O)N1CC[C@H](C(=O)N(C)[C@H](C(=O)N[C@H]2Cc3cc(O)cc(c3)-c3ccc4c(c3)c(c(-c3ccc(CC(=O)O)cc3)n4CC)CC(C)(C)COC(=O)[C@@H]3CCCN(N3)C2=O)C(C)C)C1 [Example A021] |
| – | 1 to 10 µM | 0.1 to 1 µM | 100 to 1000 nM | 100 to 1000 nM | 100 to 1000 nM | 10 to 100 nM | C=CC(=O)N1CC[C@H](C(=O)N(C)[C@H](C(=O)N[C@H]2Cc3cc(O)cc(c3)-c3ccc4c(c3)c(c(-c3ccncc3COC)n4CC)CC(C)(C)COC(=O)[C@@H]3CCCN(N3)C2=O)C(C)C)C1 [Example A091] |
| – | > 10 µM | 1 to 10 µM | 1000 to 10000 nM | 1000 to 10000 nM | 100 to 1000 nM | 100 to 1000 nM | C=CC(=O)N1CCN(C(=O)N(C)[C@H](C(=O)N[C@H]2Cc3cc(O)cc(c3)-c3ccc4c(c3)c(c(-c3ccccc3CCOC)n4CC)CC(C)(C)COC(=O)[C@@H]3CCCN(N3)C2=O)C(C)C)CC1 [Example A018] |
| – | 1 to 10 µM | 0.1 to 1 µM | 100 to 1000 nM | 100 to 1000 nM | 100 to 1000 nM | 10 to 100 nM | CCn1c(-c2cccnc2COC)c2c3cc(ccc31)-c1cc(O)cc(c1)C[C@H](NC(=O)[C@H](C(C)C)N(C)C(=O)[C@H]1CCN(C(=O)/C=C/CN3CCN(C)CC3)C1)C(=O)N1CCC[C@H](N1)C(=O)OCC(C)(C)C2 [Example A072] |
| – | > 10 µM | 1 to 10 µM | 1000 to 10000 nM | 1000 to 10000 nM | 1000 to 10000 nM | 100 to 1000 nM | C=CC(=O)N1CC[C@H](C(=O)N(C)[C@H](C(=O)N[C@H]2Cc3cc(O)cc(c3)-c3ccc4c(c3)c(c(-c3cccc(CN(C)C)c3)n4CC)CC(C)(C)COC(=O)[C@@H]3CCCN(N3)C2=O)C(C)C)C1 [Example A030] |
| – | 1 to 10 µM | 1 to 10 µM | 100 to 1000 nM | 100 to 1000 nM | 1000 to 10000 nM | 10 to 100 nM | C=CC(=O)N1CC[C@H](C(=O)N(C)[C@H](C(=O)N[C@H]2Cc3cc(O)cc(c3)-c3ccc4c(c3)c(c(C3=C(COC)COCC3)n4CC)CC(C)(C)COC(=O)[C@@H]3CCCN(N3)C2=O)C(C)C)C1 [Example A058] |
| – | > 10 µM | 1 to 10 µM | 1000 to 10000 nM | 1000 to 10000 nM | 1000 to 10000 nM | 100 to 1000 nM | C=CC(=O)N1CC[C@H](C(=O)N(C)[C@H](C(=O)N[C@H]2Cc3cc(O)cc(c3)-c3ccc4c(c3)c(c(-c3ccc(CN5CCCC5)cc3)n4CC)CC(C)(C)COC(=O)[C@@H]3CCCN(N3)C2=O)C(C)C)C1 [Example A010] |
| – | 1 to 10 µM | 1 to 10 µM | 1000 to 10000 nM | 1000 to 10000 nM | 1000 to 10000 nM | 100 to 1000 nM | C=CC(=O)N1CC[C@H](C(=O)N(C)[C@H](C(=O)N[C@H]2Cc3cc(O)cc(c3)-c3ccc4c(c3)c(c(-c3ccc(C5CCN(C)CC5)cc3)n4CC)CC(C)(C)COC(=O)[C@@H]3CCCN(N3)C2=O)C(C)C)C1 [Example A039] |
| – | > 10 µM | > 10 µM | 1000 to 10000 nM | 1000 to 10000 nM | 1000 to 10000 nM | 100 to 1000 nM | C=CC(=O)N1CC[C@H](C(=O)N(C)[C@H](C(=O)N[C@H]2Cc3cc(O)cc(c3)-c3ccc4c(c3)c(c(-c3ccc(CN5CC[C@@H](O)C5)cc3)n4CC)CC(C)(C)COC(=O)[C@@H]3CCCN(N3)C2=O)C(C)C)C1 [Examples A001] |
| – | > 10 µM | > 10 µM | 1000 to 10000 nM | 1000 to 10000 nM | 1000 to 10000 nM | 100 to 1000 nM | C=CC(=O)N1CC[C@H](C(=O)N(C)[C@H](C(=O)N[C@H]2Cc3cc(O)cc(c3)-c3ccc4c(c3)c(c(-c3ccc(CN(C)C)cc3)n4CC)CC(C)(C)COC(=O)[C@@H]3CCCN(N3)C2=O)C(C)C)C1 [Example A003] |
| – | > 10 µM | 1 to 10 µM | 1000 to 10000 nM | 1000 to 10000 nM | 1000 to 10000 nM | 100 to 1000 nM | C=CC(=O)N1CC[C@H](C(=O)N(C)[C@H](C(=O)N[C@H]2Cc3cc(O)cc(c3)-c3ccc4c(c3)c(c(-c3cncc(CCN(C)C)c3)n4CC)CC(C)(C)COC(=O)[C@@H]3CCCN(N3)C2=O)C(C)C)C1 [Example A081] |
